Reference: PMC7836687 (International Journal of Biological Macromolecules, 2020)

Experiments:
Vero cells = details: at concentration 12.50 μM
SARS-CoV-2 = assay type: cell-based, SARS-CoV-2 (βCoV/KOR/KCDC03/2020); details: Severe acute respiratory syndrome coronavirus 2, Vero; for IC50: read-out: IC50 against SARS-CoV-2 infection
[1] = cited from earlier work

Structure (SMILES) | IC50 (SARS-CoV-2) | also measured
C=C(C)[C@@H]1CCC(C)=C[C@H]1c1c(O)cc(CCCCC)cc1O [CBD, Cannabidiol] | 7.91 µM | Vero cell survival ratio (Vero cells): 97.46%; inhibition at 12.5 µM (SARS-CoV-2; read-out: inhibition of SARS-CoV-2 virus): 99.2%; safe dose ([1]; humans, concluded from literature dosing): up to 60 mg per day; safety of a single oral dose ([1]; single oral dose 100 mg, healthy volunteers): safe and tolerable
C=C(C)[C@@H]1CCC(C)=C[C@H]1c1c(O)cc(CCCCC)c(C(=O)O)c1O [CBDA, Cannabidiolic acid] | 37.6 µM | 
CCCCCc1cc(O)c2c(c1)OC(C)(C)c1ccc(C)cc1-2 [CBN, Cannabinol] | 11.1 µM | 
CCN(CC)CCCC(C)Nc1ccnc2cc(Cl)ccc12 (centres unmarked) [chloroquine, reference compound] | 9.78 µM | 
Cc1cccc(C)c1OCC(=O)N[C@@H](Cc1ccccc1)[C@@H](O)C[C@H](Cc1ccccc1)NC(=O)[C@H](C(C)C)N1CCCNC1=O [lopinavir, reference compound] | 13.2 µM | 
CCC(CC)COC(=O)[C@H](C)N[P@](=O)(OC[C@H]1O[C@@](C#N)(c2ccc3c(N)ncnn23)[C@H](O)[C@@H]1O)Oc1ccccc1 [remdesivir, reference compound] | 8.17 µM | 
CCCCCc1cc(O)c2c(c1)OC(C)(C)[C@@H]1CCC(C)=C[C@@H]21 [Δ^9-THC, Δ^9-tetrahydrocannabinol] | 10.2 µM | 
